The values that follow come from patent publication US20240239775A1, “FXR REGULATOR, PREPARATION METHOD THEREFOR, PHARMACEUTICAL COMPOSITION THEREOF AND USE THEREOF” (QINGDAO RUIJI MEDICAL TECHNOLOGY CO., LTD., priority 2021, published 2024).

The IC50 is the concentration needed to halve the response being measured. High values mean weaker potency in that assay, low ones greater potency in that assay. For orientation: melting point means the temperature of the solid-liquid transition.

The target in one series is T1, FXR (Homo sapiens, UniProt Q96RI1).
T1 construct: 5 μL of 20 nM FXR-LBD Complete Coregulator buffer G; purchased ThermoFisher PV4833
T1 sequence (Q96RI1 262-486 limits assumed): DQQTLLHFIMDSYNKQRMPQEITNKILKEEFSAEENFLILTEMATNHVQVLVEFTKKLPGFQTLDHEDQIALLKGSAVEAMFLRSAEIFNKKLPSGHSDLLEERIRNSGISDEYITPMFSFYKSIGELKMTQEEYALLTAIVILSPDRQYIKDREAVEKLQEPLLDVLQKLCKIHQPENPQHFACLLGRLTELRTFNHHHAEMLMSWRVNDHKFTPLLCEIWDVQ
The series can be described thus: FXR antagonist screening by TR-FRET (LanthaScreen TR-FRET FXR co-activation assay kit). It is filed as biochemical. The settings on record: Table 1.1, FXR antagonistic activity; TR-FRET with CDCA; geometric means of at least two independent runs. The gist of the method:
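FXR-LBD (20 nM working solution) mixed with compound, CDCA (200 μM working solution) as agonist, Fluorescein-SRC2-2 and Tb-anti-GST antibody in Coregulator buffer G; 10 h at room temperature. Coactivator recruitment read by TR-FRET, triplicate wells.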
In general terms: TR-FRET usually uses a lanthanide donor and a delayed reading to cut background.
In the case of `Cc1c(C(=O)O)oc2ccc(S(=O)(=O)N(CCc3ccccc3)Cc3ccccc3F)cc12` [Example F27-S14, 3-methyl-5-(N-(2-fluorobenzyl)-N-phenethylsulfamoyl)benzofuran-2-carboxylic acid], the IC50 lay within 0.1 to 10 µM. In turn, `Cc1c(C(=O)O)oc2ccc(S(=O)(=O)N(CCc3ccccc3)Cc3ccccc3Cl)cc12` [Example F27-S15, 3-methyl-5-(N-(2-chlorobenzyl)-N-phenethylsulfamoyl)benzofuran-2-carboxylic acid] displayed an IC50 of 10 to 50 µM.

`Cc1c(C(=O)O)oc2ccc(S(=O)(=O)N(CCc3ccccc3)Cc3ccccc3Br)cc12` [Example F27-S16, 3-methyl-5-(N-(2-bromobenzyl)-N-phenethylsulfamoyl)benzofuran-2-carboxylic acid] showed an IC50 of 10 to 50 µM. Still for that read-out and setting: to `Cc1ccccc1CN(CCc1ccccc1)S(=O)(=O)c1ccc2oc(C(=O)O)c(C)c2c1` [Example F27-S17, 3-methyl-5-(N-(2-methylbenzyl)-N-phenethylsulfamoyl)benzofuran-2-carboxylic acid] belongs 10 to 50 µM.

Staying with this series, now noted: Table 1.2, FXR antagonistic activity; TR-FRET with CDCA; geometric means of at least two independent runs.
On to `CCOC(=O)c1[nH]c2ccc(S(=O)(=O)N(CCc3ccccc3)c3ccccc3N3CCN(C(=O)c4sccc4Br)CC3)cc2c1Cl` [Example M10-161, Ethyl 5-(N-(2-(4-(3-bromothiophene-2-carbonyl)piperazin-1-yl)phenyl)-N-phenethylsulfamoyl)-3-chloro-1H-indole-2-carboxylate], for which the IC50 was 50 to 100 µM. Still for that read-out and setting: with `CCOC(=O)c1cc2cc(S(=O)(=O)N(CCc3ccccc3)c3ccccc3N3CCN(C(=O)c4sccc4Br)CC3)ccc2o1` [Example M10-162, Ethyl 5-(N-(2-(4-(3-bromothiophene-2-formyl)piperazin-1-yl)phenyl)-N-phenethylsulfamoyl)benzofuran-2-carboxylate] the figure was 50 to 100 µM; with `CCOC(=O)c1oc2cc(S(=O)(=O)N(CCc3ccccc3)c3ccccc3N3CCN(C(=O)c4sccc4Br)CC3)ccc2c1C` [Example M10-163, Ethyl 6-(N-(2-(4-(3-bromothiophene-2-formyl)piperazin-1-yl)phenyl)-N-phenethylsulfamoyl)-3-methylbenzofuran-2-carboxylate], 50 to 100 µM; with `CCOC(=O)c1cc2ccc(S(=O)(=O)N(CCc3ccccc3)c3ccccc3N3CCN(C(=O)c4sccc4Br)CC3)cc2o1` [Example M10-164, Ethyl 6-(N-(2-(4-(3-bromothiophene-2-formyl)piperazin-1-yl)phenyl)-N-phenethylsulfamoyl)benzofuran-2-carboxylate], 50 to 100 µM. Same read-out and setting: with `CCOC(=O)c1sc2ccc(S(=O)(=O)N(CCc3ccc(Cl)cc3)c3ccccc3N3CCN(C(=O)c4sccc4Br)CC3)cc2c1C` [Example M10-165, ethyl 5-(N-(2-(4-(3-bromothiophene-2-carbonyl)piperazin-1-yl)phenyl)-N-(4-chlorophenylethyl)sulfamoyl)-3-methylbenzothiophene-2-carboxylate] the figure was 50 to 100 µM; with `CCOC(=O)c1sc2ccc(S(=O)(=O)N(CCc3ccc(C)cc3)c3ccccc3N3CCN(C(=O)c4sccc4Br)CC3)cc2c1C` [Example M10-166, Ethyl 5-(N-(2-(4-(3-bromothiophene-2-carbonyl)piperazin-1-yl)phenyl)-N-(4-methylphenylethyl)sulfamoyl)-3-methylbenzothiophene-2-carboxylate], 50 to 100 µM; with `CCOC(=O)c1sc2ccc(S(=O)(=O)N(CCc3ccc(C(=O)OC)cc3)c3ccccc3N3CCN(C(=O)c4sccc4Br)CC3)cc2c1C` [Example M10-167, ethyl 5-(N-(2-(4-(3-bromothiophene-2-carbonyl)piperazin-1-yl)phenyl)-N-(4-(methoxycarbonyl)phenethyl)sulfamoyl)-3-methylbenzothiophene-2-carboxylate], 50 to 100 µM.

`CCOC(=O)c1sc2ccc(S(=O)(=O)N(CCc3ccc(C#N)cc3)c3ccccc3N3CCN(C(=O)c4sccc4Br)CC3)cc2c1C` [Example M10-168] gave a half-maximal inhibitory concentration (IC50) of 50 to 100 µM. Still for that read-out and setting: with `CCOC(=O)c1sc2ccc(S(=O)(=O)N(CCc3ccc(C(F)(F)F)cc3)c3ccccc3N3CCN(C(=O)c4sccc4Br)CC3)cc2c1C` [Example M10-169, Ethyl 5-(N-(2-(4-(3-bromothiophene-2-carbonyl)piperazin-1-yl)phenyl)-N-(4-(trifluoromethyl)phenethyl)sulfamoyl)-3-methylbenzothiophene-2-carboxylate] the figure was 50 to 100 µM; with `CCOC(=O)c1sc2ccc(S(=O)(=O)N(CCc3cccc(OC)c3)c3ccccc3N3CCN(C(=O)c4sccc4Br)CC3)cc2c1C` [Example M10-170, Ethyl 5-(N-(2-(4-(3-bromothiophene-2-carbonyl)piperazin-1-yl)phenyl)-N-(3-methoxyphenethyl)sulfamoyl)-3-methylbenzothiophene-2-carboxylate], 50 to 100 µM; with `CCOC(=O)c1sc2ccc(S(=O)(=O)N(CCc3cccc(Cl)c3)c3ccccc3N3CCN(C(=O)c4sccc4Br)CC3)cc2c1C` [Example M10-171, Ethyl 5-(N-(2-(4-(3-bromothiophene-2-carbonyl)piperazin-1-yl)phenyl)-N-(3-chlorophenylethyl)sulfamoyl)-3-methylbenzothiophene-2-carboxylate], 50 to 100 µM. Same read-out and setting: to `CCOC(=O)c1sc2ccc(S(=O)(=O)N(CCc3ccccc3Cl)c3ccccc3N3CCN(C(=O)c4sccc4Br)CC3)cc2c1C` [Example M10-172, Ethyl 5-(N-(2-(4-(3-bromothiophene-2-carbonyl)piperazin-1-yl)phenyl)-N-(2-chlorophenylethyl)sulfamoyl)-3-methylbenzothiophene-2-carboxylate] belongs 50 to 100 µM; to `CCOC(=O)c1sc2ccc(S(=O)(=O)N(CCc3ccccc3OC)c3ccccc3N3CCN(C(=O)c4sccc4Br)CC3)cc2c1C` [Example M10-173, Ethyl 5-(N-(2-(4-(3-bromothiophene-2-carbonyl)piperazin-1-yl)phenyl)-N-(2-methoxyphenethyl)sulfamoyl)-3-methylbenzothiophene-2-carboxylate], 50 to 100 µM. Consider `CCOC(=O)c1sc2ccc(S(=O)(=O)N(CCc3ccccc3[N+](=O)[O-])c3ccccc3N3CCN(C(=O)c4sccc4Br)CC3)cc2c1C` [Example M10-174], for which the IC50 was in the range of 50 to 100 µM. As to `CCOC(=O)c1sc2ccc(S(=O)(=O)N(CCCc3ccccc3)c3ccccc3N3CCN(C(=O)c4sccc4Br)CC3)cc2c1C` [Example M10-175, ethyl 5-(N-(2-(4-(3-bromothiophene-2-carbonyl)piperazin-1-yl)phenyl)-N-(3-phenylpropyl)sulfamoyl)-3-methylbenzothiophene-2-carboxylate], the IC50 lay within 50 to 100 µM. `CCOC(=O)c1sc2ccc(S(=O)(=O)Nc3ccccc3N3CCN(C(=O)c4sccc4Br)CC3)cc2c1C` [Example M10-176, Ethyl 5-(N-(2-(4-(3-bromothiophene-2-carbonyl)piperazin-1-yl)phenyl)sulfamoyl)-3-toluothiophene-2-carboxylate] gave a half-inhibitory concentration (IC50) of 50 to 100 µM. On the same count and under the same terms, with `CCOC(=O)c1sc2ccc(S(=O)(=O)N(CCc3ccc(OC)cc3)c3ccccc3N3CCN(C(=O)c4sccc4Br)CC3)cc2c1C` [Example M10-177, Ethyl 5-(N-(2-(4-(3-bromothiophene-2-formyl)piperazin-1-yl)phenyl)-N-(4-methoxyphenethyl)sulfamoyl)3-methylbenzothiophene-2-carboxylate] the figure was 50 to 100 µM. `CCOC(=O)c1c(C)c2cc(S(=O)(=O)N(CCc3ccccc3)c3ccccc3N3CCN(C(=O)c4sccc4Br)CC3)ccc2n1C` [Example M10-179, Ethyl 5-(N-(2-(4-(3-bromothiophene-2-carbonyl)piperazin-1-yl)phenyl)-N-phenethylsulfamoyl)-1,3-dimethyl-1H-indole-2-carboxylate] gave an IC50 of 50 to 100 µM. In turn, `CCOC(=O)c1sc2ccc(S(=O)(=O)N(CCC3CCCCC3)c3ccccc3N3CCN(C(=O)c4sccc4Br)CC3)cc2c1C` [Example M10-180, Ethyl 5-(N-(2-(4-(3-bromothiophene-2-carbonyl)piperazin-1-yl)phenyl)-N-(2-cyclohexylethyl)sulfamoyl)-3-methylbenzothiophene-2-carboxylate] gave an IC50 of 50 to 100 µM. On the same count and under the same terms, to `CCOC(=O)c1sc2ccc(S(=O)(=O)N(Cc3ccccc3)c3ccccc3N3CCN(C(=O)c4sccc4Br)CC3)cc2c1C` [Example M10-181, Ethyl 5-(N-benzyl-N-(2-(4-(3-bromothiophene-2-carbonyl)piperazin-1-yl)phenyl)sulfamoyl)-3-methylbenzothiophene-2-carboxylate] belongs 50 to 100 µM; to `CCOC(=O)c1sc2ccc(S(=O)(=O)N(C)c3ccccc3N3CCN(C(=O)c4sccc4Br)CC3)cc2c1C` [Example M10-182, Ethyl 5-(N-(2-(4-(3-bromothiophene-2-carbonyl)piperazin-1-yl)phenyl)-N-methylsulfamoyl)-3-methylbenzothiophene-2-carboxylate], 50 to 100 µM. In the case of `CCOC(=O)c1sc2ccc(S(=O)(=O)N(CCc3cccs3)c3ccccc3N3CCN(C(=O)c4sccc4Br)CC3)cc2c1C` [Example M10-183, Ethyl 5-(N-(2-(4-(3-bromothiophene-2-carbonyl)piperazin-1-yl)phenyl)-N-(2-(thiophen-2-yl)ethyl)sulfamoyl)-3-methylbenzothiophene-2-carboxylate], the IC50 lay within 50 to 100 µM.

System in a further series: not given
Assay: not given
Settings: not given
On to `Cc1c(C(=O)O)oc2ccc(S(=O)(=O)N(CCc3ccccc3)Cc3ccccc3F)cc12` [Example F27-S14, 3-methyl-5-(N-(2-fluorobenzyl)-N-phenethylsulfamoyl)benzofuran-2-carboxylic acid], for which the melting point is > 380 °C (dec.). The same measure, in the same setting: to `Cc1c(C(=O)O)oc2ccc(S(=O)(=O)N(CCc3ccccc3)Cc3ccccc3Cl)cc12` [Example F27-S15, 3-methyl-5-(N-(2-chlorobenzyl)-N-phenethylsulfamoyl)benzofuran-2-carboxylic acid] belongs 156 to 157 °C; to `Cc1c(C(=O)O)oc2ccc(S(=O)(=O)N(CCc3ccccc3)Cc3ccccc3Br)cc12` [Example F27-S16, 3-methyl-5-(N-(2-bromobenzyl)-N-phenethylsulfamoyl)benzofuran-2-carboxylic acid], 170 to 171 °C; to `Cc1ccccc1CN(CCc1ccccc1)S(=O)(=O)c1ccc2oc(C(=O)O)c(C)c2c1` [Example F27-S17, 3-methyl-5-(N-(2-methylbenzyl)-N-phenethylsulfamoyl)benzofuran-2-carboxylic acid], 199 to 200 °C.
